Data from ChEMBL document CHEMBL6121015, “Correction of aberrant splicing of ELP1 pre-mRNA by kinetin derivatives - A structure activity relationship study” (Eur J Med Chem, 2025).
Activity calls are given as the source filed them. The rule behind the calls is not given here.

Columns and labels:
GM04663 [1] = experiment: Corrector activity at aberrant splicing of ELP1 gene […] mutant (unknown origin) in human GM04663 cells assessed as increase in exon 20 inclusion at 10 uM by Capillary electrophoresis; format: cell-based
ARPE-19 = experiment: Cytotoxicity against human ARPE-19 cell assessed as decrease in resazurin signal incubated with resazurin for 1 hrs by M2 reader analysis; format: toxicity, cell-based; parameters: scale not given: the % may be the effect or the level left; details: arpe-19, 1 h
HaCaT = experiment: Cytotoxicity against human HaCaT cell assessed as decrease in resazurin signal incubated with resazurin for 3 hrs by M2 reader analysis; format: toxicity, cell-based; parameters: scale not given: the % may be the effect or the level left
[2] = Cytotoxicity against human GM04663 cell assessed as decrease in resazurin signal incubated with resazurin for 48 hrs by M2 reader analysis; format: functional; parameters: scale not given: the % may be the effect or the level left
BJ = experiment: Cytotoxicity against human BJ cell assessed as decrease in resazurin signal incubated with resazurin for 3 hrs by M2 reader analysis; format: toxicity, cell-based; parameters: scale not given: the % may be the effect or the level left
GM04663 [3] = experiment: Corrector activity at aberrant splicing of ELP1 gene […] mutant (unknown origin) in human GM04663 cells assessed as increase in exon 20 inclusion at 50 uM by Capillary electrophoresis; format: cell-based

Row | Compound | Activity (GM04663 [1]) | further results
1 | CCCn1cnc2ncnc(NCc3ccco3)c21 | inactive | 
2 | C=CCNc1nc2c(NCc3ccco3)ncnc2[nH]1 | Active | 
3 | c1ccc(CNc2nc3c(NCc4ccco4)ncnc3[nH]2)cc1 | Active | Activity (ARPE-19): < 20%; Activity (HaCaT): > 20%; Activity [2]: >20%; Activity (BJ): > 20%
4 | NCCNc1nc2c(NCc3ccco3)ncnc2[nH]1 | Active | 
5 | c1coc(CNc2ncnc3[nH]cnc23)c1 | Active | 
6 | CCCOc1nc2c(NCc3ccco3)ncnc2[nH]1 | Active | 
7 | Cn1cnc2nc(Cl)nc(NCc3ccco3)c21 | Active | 
8 | O=c1[nH]c2ncnc(NCc3ccco3)c2[nH]1 | Active | 
9 | Nc1nc2c(NCc3ccco3)nc(Cl)nc2[nH]1 | inactive | 
10 | Cn1cnc2ncnc(NCc3ccco3)c21 | Active | 
11 | c1ccc(Nc2nc3c(NCc4ccco4)ncnc3[nH]2)cc1 | Active | Activity (ARPE-19): < 20%; Activity (HaCaT): > 20%; Activity [2]: >20%; Activity (BJ): > 20%
12 | Clc1nc(NCc2ccco2)c2nc(Cl)[nH]c2n1 | Active | 
13 | Nc1nc2c(NCc3ccco3)ncnc2[nH]1 | Active | 
14 | Fc1nc(NCc2ccco2)c2nc[nH]c2n1 | Active | Activity (ARPE-19): < 20%; Activity (HaCaT): > 20%; Activity [2]: >20%; Activity (BJ): > 20%
15 | CN(Cc1ccco1)c1cc(Cl)nc(N)n1 |  | Activity (GM04663 [3]): Active
16 | CN(C)CCNc1nc2c(NCc3ccco3)ncnc2[nH]1 | Active | 
17 | Nc1c(Cl)ncnc1NCc1ccco1 |  | Activity (GM04663 [3]): Active
18 | c1coc(CNc2ncnc3[nH]c(NCCCN4CCOCC4)nc23)c1 | Active | 
19 | Ic1nc2c(NCc3ccco3)ncnc2[nH]1 | inactive | 
20 | Nc1nc(Cl)cc(NCc2ccco2)n1 |  | Activity (GM04663 [3]): Active
21 | CN(C)CCOc1nc2c(NCc3ccco3)ncnc2[nH]1 | Active | 
22 | CSc1nc2c(NCc3ccco3)ncnc2[nH]1 | Active | 
23 | Clc1nc(NCc2ccco2)c2[nH]cnc2n1 | Active | Activity (ARPE-19): < 20%; Activity (HaCaT): > 20%; Activity [2]: >20%; Activity (BJ): > 20%
24 | Clc1cc(NCc2ccco2)ncn1 |  | Activity (GM04663 [3]): Active
25 | c1csc(CNc2[nH]cnc3ncnc2-3)c1 | inactive | 
26 | COc1nc2c(NCc3ccco3)ncnc2[nH]1 | Active | 
